Consider 34 compounds from patent US20050075375A1 (priority 2003, published 2005).

A value given as a limit tells only on which side of the number the result lay.

For one assay, the system named is monocistronic NK5.1 HCV replicon in Huh7 cells. As to the kind of experiment: HCV replicon assay, monocistronic replicon cell line. The class given is cell-based, hepatitis C virus. To be noted: Hepatitis C virus, Huh-7, 72 h; Table 1; monocistronic replicon in Huh7 cells, 3 days incubation, HCV RNA/GAPDH RNA by TaqMan RT-PCR; read-out: Mono EC50 Median. Put shortly:
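Huh7 cells carrying the monocistronic NK5.1 replicon, seeded 24 h before dosing, were exposed to six-point half-log compound series (0.6% DMSO) for 3 days at 37 °C. Replicon RNA was quantified by TaqMan RT-PCR, normalised to GAPDH and compared with DMSO controls to derive EC50.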
Regarding `COc1ccc(-c2ccn(-c3ncccc3C(F)(F)F)n2)c(F)c1` [Compound 51, 2-[3-(2-Fluoro-4-methoxy-phenyl)-pyrazol-1-yl]-3-trifluoromethyl-pyridine], the EC50 (usually the concentration needed to bring the measured effect to its halfway point) is 20 µM.

In the case of `Cc1c2c(=O)oc3ccccc3c2nn1-c1ccccn1` [Compound 94], the EC50 came to 8.9 µM.

`COc1ccc(OC)c(-c2nc(-c3ccc(C(F)(F)F)cn3)no2)c1` [Compound 214, 2-[5-(2,5-Dimethoxy-phenyl)-[1,2,4]oxadiazol-3-yl]-5-trifluoromethyl-pyridine]: the EC50 was found to be 18 µM.

`COc1cccc(-c2nc(-c3ncccc3-c3ccccc3)no2)c1O` [Compound 230, 2-Methoxy-6-[3-(3-phenyl-pyridin-2-yl)-[1,2,4]oxadiazol-5-yl]-phenol]: the EC50 was 9.8 µM.

Regarding `Oc1ccccc1-c1nc(-c2ccccn2)no1` [Compound 133, 2-(3-Pyridin-2-yl-[1,2,4]oxadiazol-5-yl)-phenol], the EC50 was above 19 µM.

For `Cc1cc(-c2ccccc2O)nn1-c1ccccc1C(F)(F)F` [Compound 7, 2-[5-Methyl-i-(2-trifluoromethyl-phenyl)-1H-pyrazol-3-yl]-phenol], the EC50 is 20 µM.

In the case of `Cc1cccnc1-c1noc(-c2cc(Br)ccc2O)n1` [Compound 190, 4-Bromo-2-[3-(3-methyl-pyridin-2-yl)-[1,2,4]oxadiazol-5-yl]-phenol], the EC50 was 0.69 µM.

`Cc1cc(-c2c(O)ccc3ccccc23)nn1-c1ccc(Cl)cc1` [Compound 18, 1-[1-(4-Chloro-phenyl)-5-methyl-1H-pyrazol-3-yl]-naphthalen-2-ol]: the EC50 was 18 µM.

As for `Cc1cc(O)c(-c2cc(C)n(-c3ccccc3C(F)(F)F)n2)cc1C` [Compound 24, 4,5-Dimethyl-2-[5-methyl-i-(2-trifluoromethyl-phenyl)-1H-pyrazol-3-yl]-phenol], the EC50 was above 19 µM.

Regarding `CCCNC(=O)c1cc(-c2ccc3ccccc3c2)n(-c2ccccn2)n1` [Compound 72, 5-Naphthalen-2-yl-1-pyridin-2-yl-1H-pyrazole-3-carboxylic acid propylamide], the EC50 was above 32 µM.

Regarding `Cc1cc(-c2ccc3ccccc3c2O)n(-c2ccccn2)n1` [Compound 9, 2-(5-Methyl-2-pyridin-2-yl-2H-pyrazol-3-yl)-naphthalen-1-ol], the EC50 was above 19 µM.

In the case of `FC(F)(F)c1cccnc1-n1ccc(-c2cc(Br)ccc2OCc2ccccc2)n1` [Compound 108, 2-[3-(2-Benzyloxy-5-bromo-phenyl)-pyrazol-1-yl]-3-trifluoromethyl-pyridine], the EC50 was above 32 µM.

Take `COc1ccc(O)c(-c2ccn(-c3ccccn3)n2)c1` [Compound 84, 4-Methoxy-2-(1-pyridin-2-yl-1H-pyrazol-3-yl)-phenol]: the EC50 is 3.3 µM.

Take `O=[N+]([O-])c1ccc(F)c(-c2nc(-c3ccccn3)no2)c1` [Compound 149]: the EC50 worked out at 4.1 µM.

Consider `Oc1ccc(Br)cc1-c1nc(-c2nccc3ccccc23)no1` [Compound 204], for which the EC50 came out at 1.6 µM.

For the compound `CCOc1ccc(-c2nc(-c3ncccc3C)no2)c(O)c1` [Compound 243, 5-Ethoxy-2-[3-(3-methyl-pyridin-2-yl)-[1,2,4]oxadiazol-5-yl]-phenol], the EC50 is 2.2 µM.

`COc1cccc(OCc2ccccc2)c1-c1ccn(-c2ccccn2)n1` [Compound 96, 2-[3-(2-Benzyloxy-6-methoxy-phenyl)-pyrazol-1-yl]-pyridine]: the EC50 was determined as 8.6 µM.

Still in this assay, the particulars now being: Hepatitis C virus, Huh-7, 72 h; table T3 (compounds 471-640); monocistronic replicon in Huh7 cells, 3 days incubation, HCV RNA/GAPDH RNA by TaqMan RT-PCR; read-out: Mono EC50 Median.
Take `Oc1ccc(Cl)cc1-c1ncn(-c2ccccn2)n1` [Compound 630, 4-Chloro-2-(1-pyridin-2-yl-1H-[1,2,4]triazol-3-yl)-phenol]: the EC50 amounted to 11 µM.

As for `Oc1ccccc1-c1nc(-c2ccc(C(F)(F)F)cn2)n[nH]1` [Compound 518, 2-[5-(5-trifluoromethyl-pyridin-2-yl)-2H-[1,2,4]triazol-3-yl]-phenol], the EC50 was above 19 µM.

Take `COc1ccc(O)c(-c2nc(-c3ncccc3[N+](=O)[O-])n[nH]2)c1` [Compound 554, 4-Methoxy-2-[5-(3-nitro-pyridin-2-yl)-2H-[1,2,4]triazol-3-yl]-phenol]: the EC50 is above 19 µM.

`Cc1cccnc1-n1cnc(-c2cc(Br)ccc2O)n1` [Compound 635, 4-Bromo-2-[1-(3-methyl-pyridin-2-yl)-1H-[1,2,4]triazol-3-yl]-phenol]: the EC50 was 6.2 µM.

`FC(F)(F)c1ccc(-c2n[nH]c(-c3cccc(Br)c3)n2)nc1` [Compound 526, 2-[5-(3-Bromo-phenyl)-1H-[1,2,4]triazol-3-yl]-5-trifluoromethyl-pyridine]: the EC50 was above 19 µM.

`COc1cccc(-c2nc(-c3ncccc3Br)n[nH]2)c1` [Compound 500, 3-Bromo 2-[5-(3-Methoxy-phenyl)-1H-[1,2,4]triazol-3-yl]-pyridine]: the concentration for a half-maximal effect (EC50) was above 32 µM.

With `CCN(CC)c1ccc(-c2nc(-c3ncccn3)n[nH]2)c(O)c1` [Compound 571, 5-Diethylamino-2-(5-pyrimidin-2-yl-2H-[1,2,4]triazol-3-yl)-phenol], the EC50 stood at 18 µM.

The same assay, now with this note: Hepatitis C virus, Huh-7; monocistronic NK5.1 HCV replicon in Huh7 cells; median value; read-out: Mono EC50 Median.
As to `COc1cccc(-c2nc(-c3cnccc3C(F)(F)F)n[nH]2)c1` [Compound 427, 3-[5-(3-Methoxy-phenyl)-1H-[1,2,4]triazol-3-yl]-4-trifluoromethyl-pyridine], the EC50 was above 19 µM.

On to `CC(C)c1ccc(-c2nc(-c3cnccc3C(F)(F)F)n[nH]2)cc1` [Compound 428, 3-[5-(4-Isopropyl-phenyl)-1H-[1,2,4]triazol-3-yl]-4-trifluoromethyl-pyridine], for which the EC50 was above 19 µM.

For `CC(=O)Nc1ccc(-c2noc(-c3cc(Br)ccc3O)n2)nc1` [Compound 263, N-{6-[5-(5-Bromo-2-hydroxy-phenyl)-[1,2,4]oxadiazol-3-yl]-pyridin-3-yl}-acetamide], the half-maximal effective concentration (EC50) was above 19 µM.

In the case of `Oc1ccc(O)c(-c2nc(-c3nccc4ccccc34)n[nH]2)c1` [Compound 381, 4-Hydroxy-2-(5-isoquinolin-1-yl-2H-[1,2,4]triazol-3-yl)-phenol], the EC50 is 8.5 µM.

In the case of `COc1ccc(OC)c(-c2nc(-c3ccc(C(F)(F)F)cn3)no2)c1` [Compound 214, 2-[5-(2,5-Dimethoxy-phenyl)-[1,2,4]oxadiazol-3-yl]-5-trifluoromethyl-pyridine], the EC50 was determined as 18 µM.

For `COc1cccc(-c2nc(-c3ncccc3-c3ccccc3)no2)c1O` [Compound 230, 2-Methoxy-6-[3-(3-phenyl-pyridin-2-yl)-[1,2,4]oxadiazol-5-yl]-phenol], the half-maximal effective concentration (EC50) turned out to be 9.8 µM.

In the case of `Oc1ccc(Cl)cc1-c1nc(-c2nccc3ccccc23)n[nH]1` [Compound 371, 4-Chloro-2-(5-isoquinolin-1-yl-2H-[1,2,4]triazol-3-yl)-phenol], the EC50 was above 19 µM.

For `Oc1cc(OCc2ccccc2)ccc1-c1nc(-c2cnccc2C(F)(F)F)n[nH]1` [Compound 417, 5-Benzyloxy-2-[5-(4-trifluoromethyl-pyridin-3-yl)-2H-[1,2,4]triazol-3-yl]-phenol], the EC50 was above 19 µM.

In the case of `Brc1ccc(-c2nc(-c3nccc4ccccc34)n[nH]2)cc1` [Compound 439], the EC50 was above 19 µM.

On to `COc1ccc(O)c(-c2nc(-c3ncccc3Br)no2)c1` [Compound 258, 2-[3-(3-Bromo-pyridin-2-yl)-[1,2,4]oxadiazol-5-yl]-4-methoxy-phenol], for which the EC50 is above 10 µM.

Consider `COc1ccccc1-c1nnc(-c2ccccn2)o1` [Compound 344, 2-[5-(2-Methoxy-phenyl)-[1,3,4]oxadiazol-2-yl]-pyridine], for which the EC50 was above 32 µM.

Regarding `COc1ccccc1-c1nnc(-c2ccccc2C(F)(F)F)o1` [Compound 327, 2-(2-Methoxy-phenyl)-5-(2-trifluoromethyl-phenyl)-[1,3,4]oxadiazole], the EC50 was 25 µM.

Take `CCOc1ccc(-c2nc(-c3ncccc3C)no2)c(O)c1` [Compound 243, 5-Ethoxy-2-[3-(3-methyl-pyridin-2-yl)-[1,2,4]oxadiazol-5-yl]-phenol]: the EC50 was found to be 2.2 µM.
